Data set [1] can be described thus: Allosteric inhibition of HIV-1 integrase assessed as antiviral activity against HIV-1 NL4-3 infected in human MT-2 cells by measuring inhibition of viral growth by luciferase reporter gene assay. The format is cell-based. The note with it: Human immunodeficiency virus 1, NL4-3, MT2.
Data set [2] has as its target T1, Nuclear receptor subfamily 1 group I member 2 (Homo sapiens, UniProt O75469).
T1 sequence (O75469 whole entry): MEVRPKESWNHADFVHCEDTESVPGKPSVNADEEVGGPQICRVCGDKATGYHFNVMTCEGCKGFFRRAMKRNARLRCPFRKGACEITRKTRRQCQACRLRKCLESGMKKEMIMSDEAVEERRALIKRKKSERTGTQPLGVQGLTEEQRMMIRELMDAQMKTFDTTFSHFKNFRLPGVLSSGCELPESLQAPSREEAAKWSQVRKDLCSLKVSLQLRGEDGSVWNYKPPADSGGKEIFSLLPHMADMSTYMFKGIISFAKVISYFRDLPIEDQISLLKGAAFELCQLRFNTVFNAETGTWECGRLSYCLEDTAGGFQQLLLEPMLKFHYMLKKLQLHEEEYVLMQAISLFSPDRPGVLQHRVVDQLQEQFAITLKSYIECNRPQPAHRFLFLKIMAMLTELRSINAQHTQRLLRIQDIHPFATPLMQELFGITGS
The data set can be described thus: Transactivation of human PXR transfected in human HepG2 cells co-transfected with CYP3A4-Luc plasmid incubated for overnight by luciferase reporter gene assay. The class given is ADME, cell-based. (Reporter assays use an easily measured gene product as a stand-in for the process of interest.)

The target in another data set is T2, PXR (NR1I2) (Homo sapiens, UniProt O75469).
T2 sequence (O75469 whole entry): T1 sequence (O75469 whole entry)
The data set can be described thus: Transactivation of human PXR transfected in human HepG2 cells co-transfected with CYP3A4-Luc plasmid incubated for overnight by luciferase reporter gene assay relative to 10 uM rifampicin. The class given is ADME, cell-based.

As a reminder, the EC50 is the midpoint of the concentration-response curve. As for `Cc1nc2cc(-c3cccc(-c4ccccc4)c3)nn2c(N2CCC(C)(C)CC2)c1[C@H](OC(C)(C)C)C(=O)O`, the EC50 in data set [1] was 130 nM.
On to `Cc1c([C@H](OC(C)(C)C)C(=O)O)c2n3cc(nc3c1CN(C)C)-c1cccc(c1)-c1cc(F)ccc1O[C@@H](C)CCCCOC1(C)CCN2CC1`, for which the 50% effective concentration (EC50) in data set [2] is greater than 50000 nM; in data set [1] it was 4.4 nM.
Broadly, the Emax is the maximal effect, on the per cent scale that the assay sets. As for `Cc1c([C@H](OC(C)(C)C)C(=O)O)c2n3cc(nc3c1C(C)(C)O)-c1cccc(c1)-c1cc(F)ccc1O[C@@H](C)CCCCOC1(C)CCN2CC1`, the Emax at PXR (NR1I2) turned out to be 71%. The figures for the EC50 in data set [2] and in data set [1] were 1010 nM and 5.7 nM, respectively.
Consider `Cc1cc2nc(-c3cccc(-c4cccc(F)c4)c3)cn2c(N2CCC(C)(C)CC2)c1[C@H](OC(C)(C)C)C(=O)O`, for which, in data set [1], the EC50 turned out to be 20.9 nM.
In the case of `Cc1c([C@H](OC(C)(C)C)C(=O)O)c2n3cc(nc3c1CNCC(C)(C)O)-c1cccc(c1)-c1cc(F)ccc1O[C@@H](C)CCCCOC1(C)CCN2CC1`, the EC50 in data set [2] was greater than 50000 nM; in data set [1], 9.5 nM.
As to `Cc1c([C@H](OC(C)(C)C)C(=O)O)c2n3cc(nc3c1CNC(C)C)-c1cccc(c1)-c1cc(F)ccc1O[C@@H](C)CCCCOC1(C)CCN2CC1`, the EC50 in data set [2] is greater than 50000 nM; in data set [1], 7.3 nM.

For the origin of these results see ChEMBL document CHEMBL4699481, “Structure-based amelioration of PXR transactivation in a novel series of macrocyclic allosteric inhibitors of HIV-1 integrase” (Bioorg Med Chem Lett, 2020).
